Results published in patent publication US11415571B2, “Large scale organoid analysis” (Tempus Labs, Inc., priority 2019, dated 2022).

Columns and labels:
Test in all cases: caspase 3/7 apoptosis assay, olaparib dilution series on tumor organoids
Assay type in all cases: cell-based, human
Settings in all cases: tumor without BRCA1 or BRCA2 mutation
[1] = tested on: tumor organoid culture line 10524-12001
Description: (§1) Tumor biopsies were collected from four individuals: UK1393, 10423-12001, 10524-12001, and 10941-12002. The tumors were genotyped and determined not carry BRCA1 or BRCA2 mutations. As such, according to conventional guidance, the tumors are not indicated for first-line therapy with a PARP inhibitor. In order to test whether these tumors may still be sensitive to PARP inhibitors, despite not carrying a BRCA1 or BRCA2 mutation, tumor organoids were cultured using cells from the biopsied material.
(§2) Briefly, cells within each of the biopsied tumor samples were dissociated and cultured to establish a tumor organoid culture line from the tumor of each individual. Single tumor organoids from the tumor organoid culture lines were collected and plated, individually, into wells of a multiwell plate with culture medium. A series of six concentrations of olaparib, in a 5-fold serial dilution, were established for the tumor organoids derived from each individual, as well as negative controls. After incubation with olaparib, a caspase 3/7 apoptosis assay was performed in each well, to determine the sensitivity of each tumor organoid to the respective concentration of olaparib. Results of the […] dilution series experiments are plotted in FIG. 3.

[2] = tested on: tumor organoid culture line 10423-12001
Description: as §1, §2

[3] = tested on: tumor organoid culture line UK1393
Description: as §1, §2

[4] = tested on: tumor organoid culture line 10941-12002
Description: as §1, §2

For `O=C(c1cc(Cc2n[nH]c(=O)c3ccccc23)ccc1F)N1CCN(C(=O)C2CC2)CC1` [Olaparib], the sensitivity to olaparib [1] was “fairly insensitive”, the sensitivity to olaparib [2] was “fairly insensitive” and the “sensitivity to olaparib compared with the other tumor organoid culture lines” value [3] was “more than 100 fold”. For the same compound, the sensitivity to olaparib [4] was “fairly insensitive”.
